Entries after “also recorded” stand apart in the source; their conditions may differ.
Columns and labels:
[1] = Phase 1/2 monotherapy: safety and tolerability; format: in vivo; conditions: 23 subjects
From the text: (§1) Dose escalation studies comprised of subjects with B-cell non-Hodgkin's lymphoma, chronic lymphocytic leukemia, multiple myeloma, breast cancer, head and neck cancer, soft tissue sarcoma, and ovarian cancer. Backfill studies comprised of subjects with diffuse large b-cell lymphoma (DLBCL), B-cell malignancies, pancreatic cancer, small-cell lung cancer, and HPV+HNSCC. Dosage for the Phase 1/2 monotherapy study is seen in FIG. 4.

[2] = system: advanced hematologic and solid tumors; assay: Phase 1/2 monotherapy: clinical efficacy (Lugano, RECIST v1.1); format: in vivo, human; conditions: for time on treatment: treatment ongoing
Description: as §1, with “Compound 67A was analyzed in hematological and solid tumors. Dose” for “Dose”
Subjects with advanced hematologic and solid tumors were treated with continuous 28-day cycles of increasing doses of Compound 67A with an accelerated titration and 3+3 trial design. As of Dec. […] Six subjects (26.1%) experienced a Compound 67A-related adverse event with only Grade 1/2 nausea (n=3, 13%) and constipation (n=2, 8.7%) occurring in >1 subject. There were no reported Compound 67A-related myelosuppression, serious adverse events, study discontinuation, or deaths.
Ten subjects were response evaluable prior to the data cut off.

[3] = Food effect pharmacokinetics, 90 mg QD, cycle 1 day 1; format: in vivo, human; conditions: for Cmax / AUC(0-t) / Tmax: human, in vivo, oral, 90 mg, 90 mg QD, cycle 1 day 1; for Cmax / AUC(0-t): Mean ± SD; for AUC(0-t): read-out: AUC0-24; for Tmax: median (min, max)
Description: The food effect was evaluated with a 90 mg QD dosage during cycle 1 at day 1 (Table 2; FIG. 3).

[4] = Compound 67A pharmacokinetics in human subjects; format: in vivo; conditions: for Cmax / Tmax / AUC(0-t): in vivo, human subjects
Description: Compound 67A pharmacokinetics were analyzed in human subjects (Table 1, FIGS. 2A-2B)

[5] = subject with follicular lymphoma, 45 mg BID
[6] = subject with myxofibrosarcoma, 45 mg BID
[7] = subject with pancreatic cancer, 45 mg BID

## CC(C)OC(=O)Nc1ccc(-c2cnc([C@H]3CC[C@H](NC(=O)OC(C)C)CC3)s2)c(S(=O)(=O)NC(C)(C)C)c1 [Compound 67A]
[1]
  Compound 67A-related myelosuppression, serious adverse events, study discontinuation, or deaths: no reported
[1]; 6 cohorts (15, 20, 30, 45 mg BID; 90, 130 mg QD), 28-day cycles
  dose-limiting toxicity: No subjects experienced a dose-limiting toxicity
[1]; n=2
  Grade 1/2 constipation (related adverse event): 8.7%
[1]; n=3
  Grade 1/2 nausea (related adverse event): 13%
[1]; six subjects
  subjects with a Compound 67A-related adverse event: 26.1%
[2]; subject with DLBCL
  metabolic activity in non-target lesions: significant reduction in metabolic activity in non-target lesions
  target lesions: near complete resolution of target lesions
[2]; subject with DLBCL, 45 mg BID
  response: partial responses; also recorded: confirmed partial response
  time on treatment: ≥ 126 days
[2]; subject with DLBCL, 45 mg BID, Lugano
  tumor change: −74%
[2]; subject with follicular lymphoma (45 mg BID), C3D1
  decrease: 42%
[2]; subject with follicular lymphoma (45 mg BID), C5D1
  decrease: 47%
[2]; subject with follicular lymphoma (45 mg BID, escalated to 130 mg QD at C5D1), end of the sixth month
  response: unconfirmed partial response
[2]; subject with follicular lymphoma, 30 mg BID
  response: stable disease with evidence of clinical benefit
[2]; subject with follicular lymphoma, 30 mg BID, C3D1
  decrease: 27%
[2]; [5]
  duration of stable disease: ≥ 99 days
  tumor change: −42%
[2]; subject with follicular lymphoma, 45 mg BID, at data cut off
  response: stable disease with tumor shrinkage
[2]; subject with follicular lymphoma, C7D1, after escalation to 130 mg QD at C5D1
  overall decrease: 67%
[2]; subject with leiomyosarcoma
  response: stable disease
[2]; subject with leiomyosarcoma, six months
  change by RECIST: 0%
[2]; subject with myxofibrosarcoma
  decrease: 30%
[2]; [6]
  response: partial responses; also recorded: unconfirmed partial response
  time on treatment: ≥ 250 days
[2]; subject with myxofibrosarcoma, 45 mg BID, RECIST v1.1
  tumor change: −30%
[2]; subject with ovarian cancer
  response: stable disease
[2]; subject with ovarian cancer, two months
  decrease by RECIST v1.1: 29%
[2]; subject with pancreatic cancer
  decrease by RECIST: 19%
  drop in CA19-9: ≥ 70%
[2]; [7]
  duration of stable disease: 111 days
  response: stable disease with tumor shrinkage; also recorded: stable disease with evidence of clinical benefit
  tumor change: −19%
[3]; 90 mg QD food-effect cohort
  impact of food on drug exposure: minimal impact of food on drug exposure
[3]; Fasted Patients (n = 3)
  Cmax: 574 ± 304 ng/mL
  AUC(0-t): 5950 ± 2900 ng·h/mL
  Tmax: 4 h
[3]; Fed Patients (n = 3)
  Cmax: 458 ± 129 ng/mL
  AUC(0-t): 6430 ± 1840 ng·h/mL
  Tmax: 8 h
[4]; 15 mg BID
  Cmax: 338 ng/mL
  Tmax: 2 h
[4]; 15 mg BID, AUC0-12
  AUC(0-t): 2630 ng·h/mL
[4]; 20 mg BID
  Cmax: 670 ng/mL
  Tmax: 2 h
[4]; 20 mg BID, AUC0-12
  AUC(0-t): 5940 ng·h/mL
[4]; 30 mg BID
  Cmax: 1210 ng/mL
  Tmax: 2 h
[4]; 30 mg BID, AUC0-12
  AUC(0-t): 10200 ng·h/mL
[4]; 45 mg BID, AUC0-12, mean ± SD, n = 2
  AUC(0-t): 13500 ± 8270 ng·h/mL
[4]; 45 mg BID, mean ± SD
  Cmax: 1430 ± 362 ng/mL
[4]; 45 mg BID, median (min, max)
  Tmax: 1.5 h
[4]; 90 mg QD, AUC0-8, mean ± SD
  AUC(0-t): 11500 ± 5570 ng·h/mL
[4]; 90 mg QD, mean ± SD
  Cmax: 1740 ± 930 ng/mL
[4]; 90 mg QD, median (min, max)
  Tmax: 2.5 h
[4]; 130 mg QD, AUC0-8, mean ± SD
  AUC(0-t): 12800 ± 3980 ng·h/mL
[4]; 130 mg QD, mean ± SD
  Cmax: 1800 ± 438 ng/mL
[4]; 130 mg QD, median (min, max)
  Tmax: 2 h
[4]; 200 mg QD, AUC0-8, mean ± SD
  AUC(0-t): 20600 ± 12200 ng·h/mL
[4]; 200 mg QD, mean ± SD
  Cmax: 3460 ± 2470 ng/mL
[4]; 200 mg QD, median (min, max)
  Tmax: 3.75 h
[4]; preliminary pharmacokinetic analyses, Phase 1/2 subjects
  systemic exposure versus dose: dose proportional systemic exposure
